Assays:
Assay type in all cases: toxicity, cell-based
[1] = tested on: HEK-293T; assay: Incucyte cell viability with HEK293T; conditions: human, 10 µM, compound concentration 10 uM
[2] = tested on: Fibroblast; assay: Incucyte cell viability with human fibroblast; conditions: 10 µM, compound concentration 10 uM
[3] = tested on: U2OS; assay: Incucyte cell viability with U2OS; conditions: human, 10 µM, compound concentration 10 uM
[4] = 0 h, replicate number 1, timepoint 0 hours
[5] = 24 h, replicate number 2, timepoint 24 hours
[6] = 0 h, replicate number 2, timepoint 0 hours
[7] = 6 h, replicate number 1, timepoint 6 hours
[8] = 12 h, replicate number 1, timepoint 12 hours
[9] = 18 h, replicate number 1, timepoint 18 hours
[10] = 24 h, replicate number 1, timepoint 24 hours
[11] = 12 h, replicate number 2, timepoint 12 hours
[12] = 6 h, replicate number 2, timepoint 6 hours
[13] = 18 h, replicate number 2, timepoint 18 hours
Note: filed as whole numbers so only -1 and 0 and 1 occur.

| Structure (SMILES) | Growth Rate [1, 4] | Growth Rate [2, 4] | Growth Rate [2, 7] | Growth Rate [2, 8] | Growth Rate [2, 9] | Growth Rate [2, 10] | Growth Rate [3, 6] | Growth Rate [3, 7] | Growth Rate [3, 8] | Growth Rate [3, 11] | Growth Rate [3, 9] | Growth Rate [3, 10] | Growth Rate [1, 7] | Growth Rate [1, 8] | Growth Rate [1, 9] | Growth Rate [1, 10] | Growth Rate [2, 11] | Growth Rate [2, 13] | Growth Rate [3, 4] | Growth Rate [3, 12] | other results |
| --- | --- | --- | --- | --- | --- | --- | --- | --- | --- | --- | --- | --- | --- | --- | --- | --- | --- | --- | --- | --- | --- |
| Cn1c(CNc2cccc(C(=O)NCc3ccccc3C(F)(F)F)c2)nnc1-c1ccncc1 | 0 | 1 | 0 | 0 | 0 | 0 | 0 | 0 | 0 | 1 | 0 | 0 | – | – | – | – | – | – | – | – | Growth Rate [1, 5]: 1; Growth Rate [2, 6]: 0 |
| COC(=O)C(Cc1ccc(OCCn2c(=O)sc3cc(C(=O)c4ccccc4)ccc32)cc1)C(=O)OC | 1 | 0 | – | 1 | 1 | 1 | – | – | 1 | – | 1 | 1 | 0 | 0 | 0 | 0 | 0 | 0 | 0 | 1 | Growth Rate [1, 6]: 0; Growth Rate [2, 12]: 0 |
| CCOC(=O)c1cc2cc(-c3cc(C(=O)NCc4ccc(C(=O)O)cc4)nn3C)ccc2[nH]1 [BI 4394] | 0 | 1 | 0 | 1 | 1 | 1 | 0 | 1 | 1 | – | 0 | 1 | – | 1 | 0 | 0 | 0 | – | – | – | Growth Rate [1, 13]: 1; Growth Rate [2, 6]: 0; Growth Rate [3, 13]: 1 |
| CN1C[C@H](Nc2cnn(C)c(=O)c2Br)C[C@H](c2ccccc2)C1 | 1 | 0 | 0 | 1 | 1 | 1 | 0 | 0 | 1 | – | 1 | 1 | 0 | 0 | 0 | 0 | 0 | 0 | – | – | Growth Rate [1, 6]: 0; Growth Rate [2, 5]: 0 |
| COC(=O)/C=C/c1cccc(N(Cc2ccc(-c3ccc(N(C)C)cc3)cc2)C(=O)C2CCCCC2)c1 [FEXARAMINE] | 0 | 0 | 0 | 1 | 1 | 1 | 0 | – | 1 | 0 | 1 | 0 | 1 | 0 | 0 | 0 | 0 | 0 | – | 0 | Growth Rate [1, 12]: 0; Growth Rate [2, 5]: 0; Growth Rate [3, 13]: 0 |
| COc1ccc(-c2ccc3cc(C(=O)O)ccc3c2)cc1C12CC3CC(CC(C3)C1)C2 | 0 | 1 | 0 | 0 | 0 | 0 | – | – | 1 | 0 | 0 | 0 | 1 | 0 | 0 | 0 | – | 1 | 0 | 0 | Growth Rate [1, 12]: 0; Growth Rate [1, 13]: 1 |
| CO[C@@H](C)c1c(Nc2ccc([C@H](N(C)C(=O)C3CCS(=O)(=O)CC3)C(F)(F)F)cc2)cnc2cc(Cl)nn12 [NVS-MALT1] | 0 | – | 0 | 0 | 0 | 0 | – | 0 | 1 | 0 | 1 | 1 | – | 0 | 0 | 0 | 1 | 1 | 0 | 1 | Growth Rate [1, 6]: 1; Growth Rate [1, 12]: 0; Growth Rate [2, 6]: 0; Growth Rate [2, 12]: 1; Growth Rate [2, 5]: 1 |
| CC#CC(=O)N1CCC[C@H]1c1nc(-c2ccc(C(=O)Nc3ccccn3)cc2)c2c(N)nccn12 [ACALABRUTINIB] | 1 | 0 | 1 | 0 | 0 | 1 | 1 | 0 | 0 | – | 0 | 1 | 0 | 0 | 0 | 0 | 1 | – | 0 | – | Growth Rate [1, 13]: 1; Growth Rate [2, 12]: 0; Growth Rate [2, 5]: 0; Growth Rate [3, 5]: 0 |
| O=C([O-])c1cc2ccccc2c(Cc2c(O)c(C(=O)[O-])cc3ccccc23)c1O.[Na+].[Na+] | 0 | 0 | 1 | 1 | 1 | 1 | – | – | 0 | 1 | 0 | 0 | 1 | 1 | 1 | 1 | – | – | 0 | 1 | Growth Rate [3, 5]: 1 |
| COCCOc1nc(-c2ccc(Cl)nc2)nc2c1CN(C(=O)c1ncn3ccccc13)CC2 [THPP-1] | 0 | 0 | 0 | 1 | 1 | 1 | – | 0 | 1 | – | 0 | 0 | – | – | 1 | 1 | 0 | 0 | 0 | 1 | Growth Rate [1, 6]: 1; Growth Rate [1, 12]: 0; Growth Rate [1, 11]: 0; Growth Rate [1, 5]: 0; Growth Rate [2, 5]: 0 |

— ChEMBL document CHEMBL4689842, “EUbOPEN Chemogenomics Library wave 1” (2021)
